Source: PubChem BioAssay (NCI)
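48-hour exposure; five concentrations; linearly interpolated endpoints. TGI denotes the concentration required for complete inhibition of growth.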

Experiments:
Assay in all cases: NCI anticancer screen, dose series, 48 h
[1] = tested on: HT29 colon
[2] = tested on: UO-31 renal
[3] = tested on: HOP-62 NSCLC
[4] = tested on: U251 CNS
[5] = tested on: NCI-H522 lung
[6] = tested on: CAKI-1 renal
[7] = tested on: SW-620 colon
[8] = tested on: SN12C renal
[9] = tested on: HCT-116 colon
[10] = tested on: SR leukemia
[11] = tested on: OVCAR-8 ovarian
[12] = tested on: A498 renal
[13] = tested on: A549 NSCLC
[14] = tested on: MALME-3M melanoma
[15] = tested on: OVCAR-5 ovarian
[16] = tested on: KM12 colon
[17] = tested on: PC-3 prostate
[18] = tested on: MCF7 breast
[19] = tested on: MDA-MB-231 breast

SMILES: C=C1C(=O)OC2/C=C(\C)C(O)/C=C\C(C)(O)CC(OC(=O)/C(C)=C/C)C12 (configuration not stated)
- TGI [1]: > 100 µM
- TGI [2]: > 100 µM
- TGI [3]: > 100 µM
- TGI [4]: > 100 µM
- TGI [5]: 26.2 µM
- TGI [6]: > 66.7 µM
- TGI [7]: 34.4 µM
- TGI [8]: 53.5 µM
- TGI [9]: 30 µM
- TGI [10]: 55.7 µM
- TGI [11]: 50.5 µM
- TGI [12]: > 100 µM
- TGI [13]: > 100 µM
- TGI [14]: 40.4 µM
- TGI [15]: > 100 µM
- TGI [16]: > 100 µM

SMILES: Cc1n[nH]c(=O)n1N=C(c1ccccc1)c1ccccc1
- TGI [1]: > 100 µM
- TGI [2]: > 100 µM
- TGI [3]: > 100 µM
- TGI [4]: > 100 µM
- TGI [5]: > 100 µM
- TGI [6]: > 100 µM
- TGI [7]: > 100 µM
- TGI [8]: > 100 µM
- TGI [17]: > 100 µM
- TGI [9]: > 100 µM
- TGI [11]: > 100 µM
- TGI [12]: > 100 µM
- TGI [13]: > 100 µM
- TGI [14]: > 100 µM
- TGI [18]: > 100 µM
- TGI [15]: > 100 µM
- TGI [16]: > 100 µM
- TGI [19]: > 100 µM

SMILES: COc1cc2c(cc1OC)C(Cl)C(c1cc(OC)c(OC)c(OC)c1)=C2Cl (configuration not stated)
- TGI [1]: 30.3 µM
- TGI [2]: 27.1 µM
- TGI [4]: 33 µM
- TGI [5]: 23 µM
- TGI [6]: 32.5 µM
- TGI [7]: 46.1 µM
- TGI [8]: 36.6 µM
- TGI [11]: 48.7 µM
- TGI [12]: 61.1 µM
- TGI [14]: 30.6 µM

SMILES: CC1(C)CCc2c(c(N=Nc3ccccc3)c3ccccc3c2O)O1
- TGI [1]: 34 µM
- TGI [2]: 60.3 µM
- TGI [3]: > 100 µM
- TGI [4]: 61.3 µM
- TGI [5]: > 100 µM
- TGI [6]: 69.1 µM
- TGI [7]: > 100 µM
- TGI [8]: 40.1 µM
- TGI [17]: 71.8 µM
- TGI [9]: 51.2 µM
- TGI [11]: > 100 µM
- TGI [12]: 44.1 µM
- TGI [13]: > 100 µM
- TGI [14]: > 100 µM
- TGI [18]: 47 µM
- TGI [15]: > 100 µM
- TGI [16]: > 100 µM
- TGI [19]: 67 µM

SMILES: CCN(CC)CCNc1ccc(C)c2sc3ccc(O)cc3c(=O)c12
- TGI [1]: 3.24 µM
- TGI [2]: 3.82 µM
- TGI [3]: 1.66 µM
- TGI [4]: 2.44 µM
- TGI [5]: 2.7 µM
- TGI [6]: 21.8 µM
- TGI [7]: 2.38 µM
- TGI [8]: 1.85 µM
- TGI [9]: 2.56 µM
- TGI [10]: 0.981 µM
- TGI [11]: 3.2 µM
- TGI [12]: 4.27 µM
- TGI [13]: 1.91 µM
- TGI [14]: 2.38 µM
- TGI [15]: 9.3 µM
- TGI [16]: 3.39 µM

SMILES: COc1cc(CC2c3cc(OC)c(OC)cc3CCN2C)c(Oc2cc3c(cc2OC)-c2c(OC)c(OC)c(OC)c4c2C(C3)N(C)CC4)cc1OC (configuration not stated)
- TGI [1]: > 36.5 µM
- TGI [2]: 22.1 µM
- TGI [3]: 31.3 µM
- TGI [4]: 26 µM
- TGI [5]: 24.5 µM
- TGI [6]: 32.1 µM
- TGI [7]: 30.7 µM
- TGI [8]: 28.6 µM
- TGI [9]: 24.3 µM
- TGI [11]: 32 µM
- TGI [12]: 28.8 µM
- TGI [13]: 30.6 µM
- TGI [14]: 6.67 µM
- TGI [15]: 30.6 µM
- TGI [16]: 29.3 µM

SMILES: c1ccc(-c2cc(-c3cc(-c4ccccc4)n(-c4ccccc4)n3)nn2-c2ccccc2)cc1
- TGI [1]: > 100 µM
- TGI [2]: > 100 µM
- TGI [3]: > 100 µM
- TGI [4]: > 100 µM
- TGI [5]: > 100 µM
- TGI [6]: > 100 µM
- TGI [8]: > 100 µM
- TGI [17]: > 100 µM
- TGI [9]: > 100 µM
- TGI [11]: > 100 µM
- TGI [12]: > 100 µM
- TGI [13]: > 100 µM
- TGI [14]: > 100 µM
- TGI [18]: > 100 µM
- TGI [15]: > 100 µM
- TGI [16]: > 100 µM
- TGI [19]: > 100 µM

SMILES: CC(C)(C)C=C=C(C(C)(C)C)P(=O)(O)O
- TGI [1]: > 100 µM
- TGI [3]: > 100 µM
- TGI [4]: > 100 µM
- TGI [5]: > 100 µM
- TGI [6]: > 100 µM
- TGI [7]: > 100 µM
- TGI [8]: > 100 µM
- TGI [17]: > 100 µM
- TGI [9]: > 100 µM
- TGI [10]: > 100 µM
- TGI [11]: > 100 µM
- TGI [12]: > 100 µM
- TGI [13]: > 100 µM
- TGI [14]: > 100 µM
- TGI [15]: > 100 µM
- TGI [16]: > 100 µM

SMILES: Cc1nc(-c2nc([N+](=O)[O-])c([N+](=O)[O-])[nH]2)cs1
- TGI [1]: > 100 µM
- TGI [2]: > 100 µM
- TGI [3]: > 100 µM
- TGI [4]: > 100 µM
- TGI [5]: > 100 µM
- TGI [6]: > 100 µM
- TGI [7]: > 100 µM
- TGI [8]: > 100 µM
- TGI [9]: > 100 µM
- TGI [10]: > 100 µM
- TGI [12]: > 100 µM
- TGI [13]: > 100 µM
- TGI [14]: > 100 µM
- TGI [15]: > 100 µM
- TGI [16]: > 100 µM

SMILES: CCC1(C)N=C(C(N)=O)c2ncn(N=C(C)C)c2N1 (configuration not stated)
- TGI [1]: > 100 µM
- TGI [3]: > 100 µM
- TGI [4]: > 100 µM
- TGI [5]: > 100 µM
- TGI [6]: > 100 µM
- TGI [7]: > 100 µM
- TGI [8]: > 100 µM
- TGI [17]: > 100 µM
- TGI [9]: > 100 µM
- TGI [10]: > 100 µM
- TGI [11]: > 100 µM
- TGI [12]: > 100 µM
- TGI [13]: > 100 µM
- TGI [14]: > 100 µM
- TGI [15]: > 100 µM
- TGI [16]: > 100 µM
- TGI [19]: > 100 µM

SMILES: Fc1ccc(C(OCCN2CCC3CCC(C2)N3Cc2cc3ccccc3[nH]2)c2ccc(F)cc2)cc1 (configuration not stated)
- TGI [1]: 2.49 µM
- TGI [2]: 3.42 µM
- TGI [3]: 4.54 µM
- TGI [4]: 3.42 µM
- TGI [5]: 2.84 µM
- TGI [6]: 5.69 µM
- TGI [7]: 3.78 µM
- TGI [8]: 3.05 µM
- TGI [17]: 3.25 µM
- TGI [9]: 2.6 µM
- TGI [11]: 3.1 µM
- TGI [12]: 2.99 µM
- TGI [13]: 4.26 µM
- TGI [14]: 2.96 µM
- TGI [18]: 3.57 µM
- TGI [15]: 4.18 µM
- TGI [16]: 3.72 µM
- TGI [19]: 3.22 µM

SMILES: NNC(=O)c1n[nH]nc1SSc1n[nH]nc1C(=O)NN
- TGI [1]: > 100 µM
- TGI [2]: > 100 µM
- TGI [3]: > 100 µM
- TGI [4]: > 100 µM
- TGI [5]: > 100 µM
- TGI [6]: > 100 µM
- TGI [7]: > 100 µM
- TGI [8]: > 100 µM
- TGI [17]: > 100 µM
- TGI [9]: > 100 µM
- TGI [11]: > 100 µM
- TGI [13]: > 100 µM
- TGI [18]: > 100 µM
- TGI [15]: > 100 µM
- TGI [16]: > 100 µM
- TGI [19]: > 100 µM

SMILES: O=C(C1OC1c1ccc([N+](=O)[O-])cc1)C12CC3CC(CC(C3)C1)C2 (configuration not stated)
- TGI [1]: 47.7 µM
- TGI [2]: 32.4 µM
- TGI [3]: 56.3 µM
- TGI [4]: 24.6 µM
- TGI [5]: 54 µM
- TGI [6]: 36 µM
- TGI [7]: 56 µM
- TGI [8]: 29.7 µM
- TGI [17]: 28.1 µM
- TGI [9]: 22 µM
- TGI [11]: 38.2 µM
- TGI [12]: 35.7 µM
- TGI [13]: 52.7 µM
- TGI [14]: 32.4 µM
- TGI [18]: 33.1 µM
- TGI [15]: 39.9 µM
- TGI [16]: 30.1 µM
- TGI [19]: 34.8 µM

SMILES: Cc1ccc(/C=N/Nc2ncccn2)s1
- TGI [1]: > 100 µM
- TGI [2]: > 100 µM
- TGI [3]: > 100 µM
- TGI [4]: > 100 µM
- TGI [5]: > 100 µM
- TGI [6]: > 100 µM
- TGI [7]: > 100 µM
- TGI [8]: > 100 µM
- TGI [17]: > 100 µM
- TGI [9]: > 100 µM
- TGI [11]: > 100 µM
- TGI [13]: > 100 µM
- TGI [14]: > 100 µM
- TGI [18]: > 100 µM
- TGI [15]: > 100 µM
- TGI [16]: > 100 µM
- TGI [19]: > 100 µM
